Measurements from PubChem BioAssay (NCI).
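The compound was tested at five concentrations on cells cultured in 96-well plates, with a 48-hour exposure period. The concentration for 50% growth inhibition is given as GI50. TGI: concentration producing complete growth inhibition.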

What was measured:
Assay in all cases: NCI anticancer screen, dose series, 48 h
MALME-3M melanoma = tested on: MALME-3M melanoma
COLO 205 colon = tested on: COLO 205 colon
BT-549 breast = tested on: BT-549 breast
HCC-2998 colon = tested on: HCC-2998 colon
K-562 leukemia = tested on: K-562 leukemia
MCF7 breast = tested on: MCF7 breast
DU-145 prostate = tested on: DU-145 prostate
HOP-62 NSCLC = tested on: HOP-62 NSCLC
KM12 colon = tested on: KM12 colon
SK-MEL-28 melanoma = tested on: SK-MEL-28 melanoma
CAKI-1 renal = tested on: CAKI-1 renal
OVCAR-3 ovarian = tested on: OVCAR-3 ovarian
A549 NSCLC = tested on: A549 NSCLC
786-0 renal = tested on: 786-0 renal
CCRF-CEM leukemia = tested on: CCRF-CEM leukemia
OVCAR-8 ovarian = tested on: OVCAR-8 ovarian
MDA-MB-435 = tested on: MDA-MB-435
SW-620 colon = tested on: SW-620 colon
SK-OV-3 ovarian = tested on: SK-OV-3 ovarian
T-47D breast = tested on: T-47D breast
RXF 393 renal = tested on: RXF 393 renal
UACC-257 melanoma = tested on: UACC-257 melanoma
SF-295 CNS = tested on: SF-295 CNS
OVCAR-4 ovarian = tested on: OVCAR-4 ovarian
RPMI-8226 leukemia = tested on: RPMI-8226 leukemia
LOX IMVI melanoma = tested on: LOX IMVI melanoma
SF-539 CNS = tested on: SF-539 CNS
NCI-H522 lung = tested on: NCI-H522 lung
OVCAR-5 ovarian = tested on: OVCAR-5 ovarian

`c1ccc2nc(N/N=C3\CCCCC3C3CCCCC3)ccc2c1` (configuration not stated) gave a GI50 (MALME-3M melanoma) of 2.36 µM, a TGI (MALME-3M melanoma) of 12.9 µM and a GI50 (COLO 205 colon) of 3.26 µM. It also gave a TGI (COLO 205 colon) of 12.7 µM, a GI50 (BT-549 breast) of 9.09 µM and a TGI (BT-549 breast) of 22.1 µM. The GI50 (HCC-2998 colon) was 3.46 µM, the TGI (HCC-2998 colon) was 14 µM and the GI50 (K-562 leukemia) was 4.85 µM. The TGI (K-562 leukemia) was over 100 µM, the GI50 (MCF7 breast) was 2.46 µM and the TGI (MCF7 breast) was 11.7 µM. For the same molecule, the GI50 (DU-145 prostate) was 11.9 µM, the TGI (DU-145 prostate) was 24.8 µM and the GI50 (HOP-62 NSCLC) was 11.8 µM. It also gave a TGI (HOP-62 NSCLC) of 25.7 µM, a GI50 (KM12 colon) of 4.27 µM and a TGI (KM12 colon) of 15.7 µM. For the same molecule, the GI50 (SK-MEL-28 melanoma) was 10.9 µM, the TGI (SK-MEL-28 melanoma) was 24.9 µM and the GI50 (CAKI-1 renal) was 4.78 µM. It also gave a TGI (CAKI-1 renal) of 25.3 µM, a GI50 (OVCAR-3 ovarian) of 13.9 µM and a TGI (OVCAR-3 ovarian) of 27 µM. For the same molecule, the GI50 (A549 NSCLC) was 6.26 µM, the TGI (A549 NSCLC) was 29.1 µM and the GI50 (786-0 renal) was 7.12 µM. The TGI (786-0 renal) was 21.6 µM, the GI50 (CCRF-CEM leukemia) was 2.83 µM and the TGI (CCRF-CEM leukemia) was 14 µM. For the same molecule, the GI50 (OVCAR-8 ovarian) was 11.2 µM, the TGI (OVCAR-8 ovarian) was 29 µM and the GI50 (MDA-MB-435) was 6.95 µM. The TGI (MDA-MB-435) was 21.3 µM, the GI50 (SW-620 colon) was 4.12 µM and the TGI (SW-620 colon) was 16.3 µM. It also gave a GI50 (SK-OV-3 ovarian) of 14.8 µM, a TGI (SK-OV-3 ovarian) of 34.3 µM and a GI50 (T-47D breast) of 4.33 µM. For the same molecule, the TGI (T-47D breast) was 21.8 µM, the GI50 (RXF 393 renal) was 9.21 µM and the TGI (RXF 393 renal) was 26.9 µM. It also gave a GI50 (UACC-257 melanoma) of 10.3 µM, a TGI (UACC-257 melanoma) of 27.5 µM and a GI50 (SF-295 CNS) of 2.4 µM. The TGI (SF-295 CNS) was 11.8 µM, the GI50 (OVCAR-4 ovarian) was 3.9 µM and the TGI (OVCAR-4 ovarian) was 22.8 µM. For the same molecule, the GI50 (RPMI-8226 leukemia) was 2.02 µM, the TGI (RPMI-8226 leukemia) was 4.76 µM and the GI50 (LOX IMVI melanoma) was 3.25 µM. The TGI (LOX IMVI melanoma) was 13.1 µM, the GI50 (SF-539 CNS) was 7.69 µM and the TGI (SF-539 CNS) was 21.4 µM. For the same molecule, the GI50 (NCI-H522 lung) was 4.97 µM, the TGI (NCI-H522 lung) was 20.4 µM and the GI50 (OVCAR-5 ovarian) was 8.27 µM.
